Columns and labels:
CD-1 mice [1] = assay: core body temperature (rectal measuring); assay type: in vivo, mouse; details: for core body temperature, in words: rectal measuring, mice, vs saline
Procedure: Admittedly, hyperthermia is considered a critical side effect of TRPV1 antagonists, so we assessed the effect of the polypeptides on body temperature. Polypeptides were administered intravenously at doses 0.1 mg/kg and 0.5 mg/kg, and rectal temperature was monitored (Figure 5a,b).
(§1) All experiments were performed in accordance with the recommendations in the “Principles of Laboratory Animal Care” and after approval by the Animal Care and Use Committee of the Branch of the IBCh RAS (Pushchino, Russia). Adult male CD-1 mice (Animal Breeding Facility Branch of Shemyakin-Ovchinnikov Institute of Bioorganic Chemistry, Russian Academy of Sciences, Pushchino, Russia) weighing 20–25 g were used. Animals were allowed to acclimate in the laboratory for at least five days. Mice were housed at room temperature (23 ± 2 °C) on a 12 h light–dark cycle with food and water available ad libitum. Polypeptides or vehicle was administered intravenously 15 min before testing.
(§2) The significance of the data was determined by analysis of variance (ANOVA) followed by Tukey’s test. Data are presented as mean ± S.E.
The MLT1404 Rectal Temperature Probe and Chart Power Lab (ADInstruments Inc., Colorado Springs, CO, USA) was used to record body temperature. During recording, the animals were placed in a MLA5018 Rodent Restrainer (ADInstruments Inc., Colorado Springs, CO, USA). The adaptation period was 20 min. Core body temperature was recorded every minute for 20 min before and 100 min after test compound administration. AMG9810 was dissolved in DMSO and was injected intraperitoneally.

TRPV1 [2] = assay type: cell-based, rat
Procedure: Figure 2 Effects of APHC3 on recombinant TRPV1 expressed in HEK-293 cells. (a) Resting current recorded from a TRPV1-positive cell held at −30 mV. […] Straight lines above the recording indicate application of APHC3 (Long line) and capsaicin (Short lines). The cells were stimulated and rinsed by rapid switching of the bath solution between the control solution and solutions containing the indicated compound. (b) Capsaicin responses in control and in the presence of the 300 nM APHC3 peptide. In each case, the control response was calculated as an average of two acid responses recorded just prior to peptide application. Averaged responses recorded in the presence of APHC3 were normalized to averaged control responses. Those are presented as the mean ± s.d. (n = 4). […] (c, d) Cell responses to the acidification of the bath solution from pH 7.4 to pH 5.5 in control and in the presence of the APHC3 applied at different concentrations as indicated. The experimental traces in (c) and in (d, upper trace) illustrate representative responses of EGFP/TRPV1-positive cells. The bottom trace in (d) represents responses of an EGFP/TRPV1-negative cell assayed simultaneously. (e) Acid responses recorded in the presence of APHC3 (90, 160 and 240 nM) normalized to a control response. The data are presented as the mean ± s.d. (n = 5–10). […] In each case, the control response was calculated as an average of the two acid responses recorded just prior to peptide application. The average of the two acid responses recorded after peptide application was calculated and normalized to the control response. Experimental traces in (c, d) were obtained from three different cells. The changes in bath solution pH (continuous lines) and APHC3 applications (thick straight lines) are shown above the fluorescence traces. Cells were stimulated and rinsed by a rapid replacement of the control bath solution with modified bath solution at pH 5.5 with or without APHC3.
(§3) HEK-293 cells were cultured in Dulbecco’s modified Eagle’s medium (DMEM) (Life Technologies, Grand Island, NY, USA) containing 10% (vol/vol) fetal bovine serum (Thermo Fisher Scientific, Palm Beach, FL, USA), glutamine (1%) and the antibiotic gentamicin (100 μg/mL) (Life Technologies, Grand Island, NY, USA). The pIRES2-EGFP plasmid harboring rat TRPV1 cDNA was transiently transfected into HEK-293 cells by replacing the growth medium in each well with a transfection mixture, containing 1.6 μg of DNA and 4 μL of Lipofectamine (Life Technologies, Grand Island, NY, USA) in 1 mL of serum-free DMEM. After incubating for 6 h, the transfection mixture was replaced with normal culture medium. Cells were assayed within 48–96 h after transfection.
Ion currents were recorded using an Axopatch 200A amplifier, with a DigiData 1322A interface, and pClamp8 software (Molecular Devices, Downingtown, PA, USA). External solutions were delivered by a gravity-driven perfusion system at a rate of 0.1 mL/s. Generally, the whole-cell patch clamp approach was used with recording pipettes containing (mM): 140 CsCl, 1 MgATP, 10 BAPTA, 10 HEPES-CsOH (pH 7.2). The basic bath solution included the following (mM): 140 NaCl, 5 KCl, 1 MgCl2, 1 CaCl2, 10 HEPES-NaOH (pH 7.4).

TRPV1 [3] = assay: Ca^2+ imaging, capsaicin responses of TRPV1-positive HEK-293 cells; assay type: cell-based, rat; details: 100 nM
Procedure: as §3
All recordings were performed at room temperature.

[4] = stated as background; cited from earlier work
Source text: TRPV1 participates in thermoregulation, and almost all its known agonists and antagonists change core body temperature. […] The influence of antagonists on core body temperature is more complex. Antagonists that interact with the intracellular capsaicin-binding pocket of TRPV1 elicit a hyperthermic effect if they are able to inhibit pH-induced TRPV1 currents.

CD-1 mice [5] = assay: hot plate test; assay type: in vivo, mouse; details: 0.1 and 1 mg/kg; 55 °C
Procedure: The hot plate test is a most simple for TRPV1 inhibitor characterization since TRPV1 play significant role in temperature sensation. Effect of APHC1 and APHC3 on thermal nociception at dose 0.1 mg/kg after intramuscular, intraperitoneal and intravenous administration was measured before. […] Here we assessed changes in thermal nociception to a noxious thermal stimuli elicited by different doses of APHC1 and APHC3 to determine minimal effective dose. […] Both polypeptides reached maximal effect at 0.1 mg/kg.
as §1, §2
Sensitivity to a thermal stimulus was determined by hind paw withdrawal or licking latency using a Hot-Plate Analgesia Meter (Columbus Instruments, Columbus, OH, USA) at 55 °C.

mice = details: ref [22],[23]; cited from earlier work
Source text: (§4) Several polypeptide modulators of TRPV1 that interact with the extracellular part of the receptor have been reported. […] The structural homology of APHCs to these proteins is minimal so both polypeptides presented structural distinct class of TRPV1 inhibitors.

TRPV1 [6] = details: ref [22],[23]; cited from earlier work
Source text: as §4

[7] = target: Transient receptor potential vanilloid 1 receptor (TRPV1) (rat) (UniProt O35433)
Sequence of UniProt O35433 (O35433 whole entry): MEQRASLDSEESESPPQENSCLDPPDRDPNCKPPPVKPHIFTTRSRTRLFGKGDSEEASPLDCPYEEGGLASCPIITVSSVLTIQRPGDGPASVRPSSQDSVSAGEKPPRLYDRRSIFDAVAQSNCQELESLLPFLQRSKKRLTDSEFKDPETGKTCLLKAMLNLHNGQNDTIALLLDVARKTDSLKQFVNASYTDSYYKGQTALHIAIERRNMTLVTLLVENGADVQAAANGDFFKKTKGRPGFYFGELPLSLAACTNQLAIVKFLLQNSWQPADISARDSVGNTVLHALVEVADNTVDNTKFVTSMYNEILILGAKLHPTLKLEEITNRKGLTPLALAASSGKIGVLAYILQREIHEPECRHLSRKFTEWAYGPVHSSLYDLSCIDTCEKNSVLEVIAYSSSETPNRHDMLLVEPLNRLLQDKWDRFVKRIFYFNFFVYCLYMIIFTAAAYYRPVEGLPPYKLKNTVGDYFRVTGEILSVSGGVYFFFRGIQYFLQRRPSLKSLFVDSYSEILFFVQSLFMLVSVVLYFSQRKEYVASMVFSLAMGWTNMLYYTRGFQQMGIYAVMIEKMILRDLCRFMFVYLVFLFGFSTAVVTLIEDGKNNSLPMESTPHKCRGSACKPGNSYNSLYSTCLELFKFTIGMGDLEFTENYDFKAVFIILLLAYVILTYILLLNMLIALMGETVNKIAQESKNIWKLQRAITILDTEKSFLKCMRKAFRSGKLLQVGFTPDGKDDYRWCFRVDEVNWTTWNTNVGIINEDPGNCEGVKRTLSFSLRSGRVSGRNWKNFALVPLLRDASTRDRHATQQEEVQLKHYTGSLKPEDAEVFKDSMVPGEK

Molecule: CC(C)(C)c1ccc(/C=C/C(=O)Nc2ccc3c(c2)OCCO3)cc1 [AMG9810, reference compound]
- increase in body temperature (CD-1 mice [1]; 30 mg/kg i.p., vehicle 10% DMSO, significant, n = 7): 1.6 °C
- core body temperature, in words (CD-1 mice [1]): produced hyperthermic effect

Molecule: COc1cc(CNC(=O)CCCC/C=C/C(C)C)ccc1O [capsaicin]
- capsaicin-elicited currents (TRPV1 [2]): elicited strong inward currents in all examined TRPV1-positive cells
- capsaicin-elicited Ca^2+ responses (TRPV1 [3]): elicited marked Ca^2+ responses
- body temperature [4]: significant decrease in body temperature

Molecule: aprotinin [reference compound]
- increase in core body temperature (CD-1 mice [1]; 0.1 mg/kg, not statistically significant vs saline, n = 7): 0.4–0.5 °C
- core body temperature, in words (CD-1 mice [1]): did not change or modestly increase core body temperature
- behavioral response to thermal stimuli (CD-1 mice [5]): did not change behavioral response to thermal stimuli

B1: DkTx: spider's polypeptide that activates TRPV1 (protein, UniProt P0CH43 1-79, looked up)
Tau-theraphotoxin-Hs1a: DCAKEGEVCSWGKKCCDLDNFYCPMEFIPHCKKYKPYVPVTTNCAKEGEVCGWGSKCCHGLDCPLAFIPYCEKYRGRND
- pain response when injected in mice (mice): mediate the pain response
- effect on TRPV1 in vitro (TRPV1 [6]): activate TRPV1 in vitro

B2: APHC3 (peptide)
chain: GSICLEPKVVGPCTAYFPRFYFNSETGKCTPFIYGGCEGNGNNFETLRACRGICRA
- inhibition of capsaicin (100 nM)-induced inward currents by 300 nM APHC3, whole-cell patch clamp on TRPV1-positive HEK-293 cells (n = 4) [7]: 25%

From publication PMC3877906, “Polypeptide Modulators of TRPV1 Produce Analgesia without Hyperthermia” (Marine Drugs, 2013)
